Measurements taken from patent US10550165B2, “Peptide for inducing regeneration of tissue and use thereof” (STEMRIM INC., priority 2011, dated 2020).

What was measured:
[1] = system: CD11b-negative, PDGFRα-positive cells (primary cultured bone marrow mesenchymal cells); assay: Migration assay on primary cultured CD11b-negative, PDGFRα-positive bone marrow cells; assay type: cell-based, mouse; conditions: peptide produced in HEK293, 40 μg/ml, FIG. 5
Description: Thigh and tibial bones were excised from donor mice: B6.129S4-Pdgfratm11(EGFP)Sor/J (PDGFRα-GFP Mouse). After removing attached muscles and other tissues, the bones were crushed finely and incubated with 0.2% collagenase (Roche, REF: 10103586001)/DMEM/2% FBS(filtrated) at 37° C. for 40 minutes. Then, cell aggregates and muscle tissues were removed by filtration through a 40-μm nylon mesh. After centrifugation at 1200 rpm for 10 minutes, the resulting cells were suspended in αMEM containing 10% FBS and 1% P/S and cultured in an incubator under 5% CO2 at 37° C. until they reached 100% confluence. The cells were harvested and the following experiment was carried out according to the protocol attached to CD11b MicroBeads (Miltenyi Biotec; order No: 130-049-601). The cells were adjusted to 10^7 cells/90 μl with PBS(−), and CD11b MicroBeads were added at 10 μl/10^7 cells. After 15 minutes of reaction at 4° C., the cells were washed twice and suspended in 500 μl of PBS(−). The tube was placed in AutoMACS separator and the cells were collected according to the separation program “Depletes”. The collected cells were plated onto an adherent cell culture dish. After adhesion, GFP fluorescence was observed using a fluorescence microscope. The above-described peptide 1-44 produced in HEK293 was tested for the migration-promoting activity using CD11b-negative cells. […]

[2] = system: mouse bone marrow mesenchymal stem cell line (MSC-1 cells), PDGFRα-positive; assay: Migration assay (Boyden / 48-well chemotaxis chamber) on bone marrow mesenchymal stem cell line MSC-1; assay type: cell-based
How it was run: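 Mouse MSC-1 cells (3×10^6 cells/ml in D-MEM with 10% FBS) loaded in the upper wells of a 48-well Boyden chamber with 8 μm polycarbonate membrane; mouse HMGB1 peptides or HEK293-made HMGB1 in lower wells at 100 μg/ml, 5 μM or 10 μM; PBS as negative control. After 4 h at 37° C, migrated cells were Diff-Quik stained.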

[3] = system: mouse keratinocytes; assay: Migration assay on mouse keratinocytes; assay type: cell-based; conditions: synthetic peptide, PDGFRα-negative cells, FIG. 12A
Description: Newborn C57/B16 mice were euthanized using isoflurane and carbon dioxide inhalation. Then, the mice were washed thoroughly with EtOH and PBS. The skin together with dermis was exfoliated and the blood was washed off with PBS. The exfoliated skin was placed in Dispase I (Sanko Junyaku Co., Cat: GD81060) at 4° C. for 16 hours. The epidermis and dermis were detached with forceps, and the epidermis was placed in trypsin (Nacalai tesque, Cat: 3554-64) at 37° C. for 10 minutes. When white turbidity began to appear, the reaction was stopped with S-MEM (GIBCO, Cat: 11380)/15% FBS(Ca-)P/S. The resulting cells were centrifuged at 160×G for 5 minutes, and suspended in CnT-07 medium (CELLnTEC, Cat: CnT-07 BM) and plated in a 10-cm dish. The cells were cultured under 5% CO2 at 37° C. and the medium was changed every three days. The cells were passaged when they reached 80% to 90% confluency. The cells were harvested from the dish using trypsin. After inactivation of trypsin with DMEM containing 10% FBS, a synthetic peptide consisting of the amino acid sequence of positions 1 to 34 (1-34) was examined for migration-promoting activity according to the migration assay method described above.

[4] = system: mouse skin fibroblasts; assay: Migration assay on mouse skin fibroblasts; assay type: cell-based; conditions: synthetic peptide, PDGFRα-positive cells, FIG. 13A
Description: Newborn C57/B16 mice were euthanized using isoflurane and carbon dioxide inhalation. Then, the mice were washed thoroughly with EtOH and PBS. The skin together with dermis was exfoliated and the blood was washed off with PBS. The exfoliated skin was cut into fine pieces with scissors. The skin pieces were placed in DMEM (Nacalai tesque, Cat: 08458-45) containing 0.2% collagenase (Roche, REF: 10103586001) and shaken at 37° C. for 30 minutes. The reaction was stopped with DMEM/30% FBS/P/S. The resulting cells were centrifuged at 160×G for 5 minutes and plated in a 10-cm dish. The cells were cultured under 5% CO2 at 37° C. and the medium was changed every three days. The cells were passaged when they reached 80% to 90% confluency. The cells were harvested from the dish using trypsin. After inactivation of trypsin with D-MEM containing 10% FBS, a synthetic peptide consisting of the amino acid sequence of positions 1 to 34 (1-34) was assessed for migration-promoting activity according to the migration assay method described above.

[5] = 2 μM, area of migrated cells by image analysis, FIG. 10

Substance | migration-promoting activity [1] | migration-promoting activity relative to the full-length HMGB1, compared per equal mass [2, 5] | migration-promoting activity relative to the full-length HMGB1, compared per equal mole [2, 5] | migration-promoting activity ([2]; protein and peptides produced using HEK293 (mouse HMGB1), 50 μg/ml, 4 h, FIG. 2A) | migration-promoting activity on mouse keratinocytes [3] | migration-promoting activity ([2]; synthetic peptides, 100 μg/ml, positive control 1-215(HEK), FIG. 7) | migration-promoting activity on skin fibroblasts [4]
1-44: peptide of positions 1 to 44 of mouse HMGB1, produced using HEK293 (MGKGDPKKPRGKMSSYAFFVQTCREEHKKKHPDASVNFSEFSKK; UniProt P63158 1-44, looked up, fragment) | strong migration-promoting activity | about 8 times | about 1.6 times | showed migration-promoting activity |  |  | 
(1-34): synthetic peptide consisting of the amino acid sequence from positions 1 to 34 of HMGB1 (MGKGDPKKPRGKMSSYAFFVQTCREEHKKKHPDA; UniProt P09429 1-34, looked up, fragment) |  |  |  |  | did not show migration-promoting activity | activity comparable to or higher than that of the positive control | exhibited migration-promoting activity
